Source: patent US11807693B2 (priority 2014, dated 2023)
Blank lines part the entries; values can stand above or below the molecule they belong to. Starred links: 1 amine or outer side, 2 acyl side, 3 side chain; linkers in the order of their positions; H or OH if unused. Non-standard residues stand in square brackets, D forms with d. Residues, ends and D or L forms follow the SMILES beside them. *: point of attachment. Oic = O=C(O)[C@@H]1C[C@@H]2CCCC[C@@H]2N1; Phe(4-Cl) = N[C@@H](Cc1ccc(Cl)cc1)C(=O)O; dPhe(4-Cl) = N[C@H](Cc1ccc(Cl)cc1)C(=O)O; γGlu = O=C(O)[C@H](CCC(=O)[*:2])N[*:1]; NMeR = CN[C@@H](CCCNC(=N)N)C(=O)O; Tridecanoyl = CCCCCCCCCCCCC(=O)*; hArg = N=C(N)NCCCC[C@H](N)C(=O)O; β3hF = N[C@H](CC(=O)O)Cc1ccccc1; Cha = N[C@@H](CC1CCCCC1)C(=O)O; Nle = CCCC[C@H](N)C(=O)O; AEEA = NCCOCCOCC(=O)O; Aib = CC(C)(N)C(=O)O; Mpa = O=C(O)CCS

What was measured:
[1] = rat plasma; settings: 37° C., up to 4 hr
[2] = test system: Rat Peritoneal Mast Cells
[3] = In vivo pharmacokinetics in rat; set-up: species or system Sprague-Dawley rats; settings: rat, in vivo, sc
Experimental: Evaluation of the in vivo pharmacokinetic profile of several pegylated and lipidated apelin polypeptides in rat was undertaken (FIGS. 9 and 10A-B). The apelin polypeptides were administered to Sprague-Dawley rats through subcutaneous (SC) administration and the pharmacokinetic profile for each polypeptide was subsequently evaluated. […] Blood samples collected over a 24 hr period were transferred into collection tubes containing potassium EDTA and stored on ice until processed. Plasma was obtained from blood by centrifugation. After transfer into a 96-well container, plasma samples were stored in a freezer maintained at approximately −80° C. Quantitative analysis of the apelin polypeptide in rat plasma samples was achieved using multiple reaction monitor (MRM) mode on a LC-MS/MS system.

[4] = In vitro stability in rat plasma; format: in vitro ADME
Procedure, shortened: (§1)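 Peptide 5 μM final; rat plasma / liver homog. / kidney homog.; 37° C., 4 hr. Quench MeOH + IS, vortex 15 min RT, spin 5500 g 15 min; supernatant by HR LC-MS.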

[5] = In vitro stability in rat liver homogenate; format: in vitro ADME; settings: tissue homogenate
Procedure, shortened: as §1

[6] = In vitro stability in rat kidney homogenate; format: in vitro ADME; settings: rat, tissue homogenate
Procedure, shortened: as §1

Molecule: {hexanoyl} [AC4Abu] [Aeea] [Aeea] Q R P [NMeArg] [Cha] S H K G [Oic] [Nle] [Aib] [4-Cl-F] {COOH}
not cleaved [1]: >90.0 % remaining at 4 hours

Molecule: {H2}[MerPr](10KmPEGacetamide)QRP[NMeArg][Cha]SHKG[Oic][Nle][Aib][4-Cl-F]{COOH} (10KmPEGacetamide-[Mpa]QRP[NMeR][Cha]SHKG[Oic][Nle][Aib][Phe(4-Cl)]-OH) [SEQ ID NO: 120]
induction of histamine release from rat mast cells ([2]; rat mast cells): no longer induced histamine release

Molecule: {Palm} [AC4Abu] [Aeea] [Aeea] q R P [NMeArg] [Cha] S H K G [Oic] [Nle] [aMePro] [D-BhPhe] {COOH}
not cleaved [1]: >90.0 % remaining at 4 hours

Molecule: CCCCCCCCCCCCC(=O)N[C@@H](CCC(=O)NCCOCCOCC(=O)NCCOCCOCC(=O)N[C@@H](CCC(N)=O)C(=O)N[C@@H](CCCNC(=N)N)C(=O)N1CCC[C@H]1C(=O)N(C)[C@@H](CCCNC(=N)N)C(=O)N[C@@H](CC1CCCCC1)C(=O)N[C@@H](CO)C(=O)N[C@@H](Cc1c[nH]cn1)C(=O)N[C@@H](CCCCN)C(=O)NCC(=O)N1[C@H](C(=O)N[C@@H](CCCC)C(=O)N2CCC[C@H]2C(=O)N[C@H](CC(=O)O)Cc2ccccc2)C[C@@H]2CCCC[C@@H]21)C(=O)O [Peptide 379] ({Tridecanoyl-γGlu-AEEA-AEEA}-QRP[NMeR][Cha]SHKG[Oic][Nle]P[β3hF]-OH)
AUC(0-inf) ([3]; 0.1 mg/kg): 0.145 µM·h
half-life ([3]; 0.1 mg/kg): 0.261 h

Molecule: {Palm} [AC4Abu] [Aeea] [Aeea] q R P [NMeArg] [Cha] S H K G [Pip] [Nle] [Nip] [4-Cl-F] {COOH}
not cleaved [1]: >90.0 % remaining at 4 hours

Molecule: CCCC[C@H](NC(=O)[C@@H]1C[C@@H]2CCCC[C@@H]2N1C(=O)CNC(=O)[C@H](CCCCN)NC(=O)[C@H](Cc1c[nH]cn1)NC(=O)[C@H](CO)NC(=O)[C@H](CC1CCCCC1)NC(=O)[C@H](CCCNC(=N)N)N(C)C(=O)[C@@H]1CCCN1C(=O)[C@H](CCCCNC(=N)N)NC(=O)[C@@H](CCC(N)=O)NC(C)=O)C(=O)N1CCC[C@H]1C(=O)N[C@H](Cc1ccc(Cl)cc1)C(=O)O [compound 55] (Ac-[dQ][hArg]P[NMeR][Cha]SHKG[Oic][Nle]P[dPhe(4-Cl)]-OH)
EC50 [2]: 8.17 µM

Further lines, with some results ahead:

not cleaved [1]: >90.0 % remaining at 4 hours
Molecule: {Acetyl-NH} [hArg] E Q [hArg] P r [NMeLeu] S H K G [Oic] [pI-Phe] P [D-Bip] {COOH}

remaining at 4 h, 5 μM [4]: 91%
remaining at 4 h, 5 μM [5]: 6%
remaining at 4 h, 5 μM [6]: 2%
Molecule: CCCCCCCCCCCCC(=O)N[C@@H](CCC(=O)NCCOCCOCC(=O)NCCOCCOCC(=O)N[C@@H](CCC(N)=O)C(=O)N[C@@H](CCCNC(=N)N)C(=O)N1CCC[C@H]1C(=O)N(C)[C@@H](CCCNC(=N)N)C(=O)N[C@@H](CC1CCCCC1)C(=O)N[C@@H](CO)C(=O)N[C@@H](Cc1c[nH]cn1)C(=O)N[C@@H](CCCCN)C(=O)NCC(=O)N1[C@H](C(=O)N[C@@H](CCCC)C(=O)NC(C)(C)C(=O)N[C@@H](Cc2ccc(Cl)cc2)C(=O)O)C[C@@H]2CCCC[C@@H]21)C(=O)O [compound 382] ({Tridecanoyl-γGlu-AEEA-AEEA}-QRP[NMeR][Cha]SHKG[Oic][Nle][Aib][Phe(4-Cl)]-OH)
AUC(0-inf) ([3]; 0.5 mg/kg): 0.0961 µM·h
half-life ([3]; 0.5 mg/kg): 4.1 h

not cleaved [1]: 90 % remaining at 4 hours
Molecule: {Palm} [AC4Abu] [Aeea] [Aeea] q [hArg] P r [Cha] S H K G [Oic] [Nle] P [D-BhPhe] {COOH}

not cleaved [1]: >90.0 % remaining at 4 hours
Molecule: {Acetyl-NH} [hArg] r Q [hArg] P E [NMeLeu] S H K G [Oic] [pI-Phe] P [D-Bip] {COOH}
